From patent publication US4536571A, “Selenium-containing platinum compound” (priority 1983, dated 1985)

Legend:
[1] = tested on: Cisplatin induced nephrotoxicity (blood urea nitrogen); test: BUN determination in Cisplatin-treated mice, sodium selenite time course (Table 1); assay type: in vivo, BDF1 mice
Protocol: (§1) BUN of the mice which have been administered a platinum complex increases due to the platinum poisoning in the kidney. […] The method of negating platinum toxicity of the present invention will be illustrated in more detail by way of Examples later.
(§2) Sodium selenite was administered to the peritoneal cavities of the mice at a dosage of 6.3 mg/kg. […] BUN of the mice was determined on the fourth day from the date of the administration. […] BUN of these control groups was also determined.
*^1 Average BUN value of mice which was determined on the fourth day
*^3 The figure in parentheses means the number of dead mice.

[2] = tested on: Cisplatin induced nephrotoxicity (blood urea nitrogen); test: BUN determination in Cisplatin-treated mice, sodium selenite time course (Table 2); assay type: in vivo, BDF1 mice; conditions: for number of dead mice: fourth day
Protocol: as §1, §2

[3] = tested on: Cisplatin induced nephrotoxicity (blood urea nitrogen); test: BUN determination in Cisplatin-treated mice, sodium selenite dose series (Table 3); assay type: in vivo, BDF1 mice
Protocol: as §1
BUN of the mice was dertermined on the fourth day from the date of administration and on the eleventh day from the date of the administration. […] BUN of these control groups was also determined.

[4] = LD50 of Selenium Compounds; conditions: mouse, in vivo, ip; intraperitoneal route, BDF1 male mice
Protocol: Our studies were carried out in BDF1 male mice weighing approximately 25 grams. All solutions were freshly were daily and given by the intraperitoneal route.

cadmium toxicity = conditions: in vivo; cited from earlier work
[5] = tested on: nephrotoxic effects of Cisplatin; conditions: female rats; 750 mg/kg intraperitoneally or 100 mg/kg intravenously; cited from earlier work
[6] = sodium selenite 6.3 mg/kg i.p. 2 hours before Cisplatin 14 mg/kg i.p.
[7] = sodium selenite 6.3 mg/kg i.p. 4 hours before Cisplatin 14 mg/kg i.p.
[8] = sodium selenite 6.3 mg/kg i.p. simultaneously with Cisplatin 14 mg/kg i.p.
[9] = sodium selenite 6.3 mg/kg i.p. 3 hours before Cisplatin 14 mg/kg i.p.
[10] = sodium selenite 6.3 mg/kg i.p. 6 hours before Cisplatin 14 mg/kg i.p.
[11] = sodium selenite 1 mg/kg i.p. 2 hours before Cisplatin 14 mg/kg i.p.
[12] = sodium selenite 2 mg/kg i.p. 2 hours before Cisplatin 14 mg/kg i.p.
[13] = sodium selenite 4 mg/kg i.p. 2 hours before Cisplatin 14 mg/kg i.p.
[14] = sodium selenite 6 mg/kg i.p. 2 hours before Cisplatin 14 mg/kg i.p.
[15] = sodium selenite 8 mg/kg i.p. 2 hours before Cisplatin 14 mg/kg i.p.

O=[Se](O)O [Sodium selenite, sodium selenite]
number of dead mice ([1]; fourth day, sodium selenite 6.3 mg/kg i.p. 2 hours before Cisplatin 14 mg/kg i.p.): 2 | BUN (≥30) on the fourth day, mice ([1]; sodium selenite 6.3 mg/kg i.p. 1 hour after Cisplatin 14 mg/kg i.p.): 5/5 | BUN (≥30) on the fourth day, mice [1, 6]: 1/3 | BUN (≥30) on the fourth day, mice [1, 7]: 4/5 | BUN (≥30) on the fourth day, mice [1, 8]: 2/5 | BUN (≥30) on the fourth day, mice ([1]; sodium selenite 6.3 mg/kg only, i.p.): 0/5 | number of dead mice [2, 9]: 1 | number of dead mice [2, 7]: 1 | number of dead mice [2, 10]: 1 | number of dead mice [2, 8]: 1 | BUN (≥30) on the fourth day, mice ([2]; sodium selenite 6.3 mg/kg i.p. 1 hour before Cisplatin 14 mg/kg i.p.): 3/5 | BUN (≥30) on the fourth day, mice [2, 6]: 1/5 | BUN (≥30) on the fourth day, mice [2, 9]: 1/4 | BUN (≥30) on the fourth day, mice [2, 7]: 2/4 | BUN (≥30) on the fourth day, mice [2, 10]: 2/4 | BUN (≥30) on the fourth day, mice [2, 8]: 2/4 | number of dead mice ([3]; eleventh day, sodium selenite 2 mg/kg i.p. 2 hours before Cisplatin 14 mg/kg i.p.): 1 | number of dead mice ([3]; eleventh day, sodium selenite 4 mg/kg i.p. 2 hours before Cisplatin 14 mg/kg i.p.): 2 | number of dead mice ([3]; eleventh day, sodium selenite 6 mg/kg i.p. 2 hours before Cisplatin 14 mg/kg i.p.): 1 | number of dead mice ([3]; eleventh day, sodium selenite 8 mg/kg i.p. 2 hours before Cisplatin 14 mg/kg i.p.): 1 | number of dead mice ([3]; fourth day, sodium selenite 4 mg/kg i.p. 2 hours before Cisplatin 14 mg/kg i.p.): 1 | number of dead mice ([3]; fourth day, sodium selenite 8 mg/kg i.p. 2 hours before Cisplatin 14 mg/kg i.p.): 1 | BUN (≥30) on the eleventh day, mice [3, 11]: 1/5 | BUN (≥30) on the fourth day, mice [3, 11]: 3/5 | BUN (≥30) on the eleventh day, mice [3, 12]: 0/4 | BUN (≥30) on the fourth day, mice [3, 12]: 1/5 | BUN (≥30) on the eleventh day, mice [3, 13]: 0/3 | BUN (≥30) on the fourth day, mice [3, 13]: 1/4 | BUN (≥30) on the eleventh day, mice [3, 14]: 0/4 | BUN (≥30) on the fourth day, mice [3, 14]: 1/5 | BUN (≥30) on the eleventh day, mice [3, 15]: 0/4 | BUN (≥30) on the fourth day, mice [3, 15]: 1/4 | LD50 [4]: 3.25 to 3.5 mg/kg

[Se] [selenium]
cadmium induced testicular damage (cadmium toxicity): prevents

N[C@@H](C[Se][Se]C[C@H](N)C(=O)O)C(=O)O [selenocystine]
LD50 [4]: 4 mg/kg

CCN(CC)C(=S)[S-].[Na+] [sodium diethyldithiocarbamate]
nephrotoxic effects of Cisplatin [5]: effectively inhibited

O=[Se](=O)(O)O [sodium selenate]
LD50 [4]: 5.25 to 5.75 mg/kg
